This is an account of results in patent publication US4994450A, “Azacyclic compounds and their use as analgesic agents” (Dr. Lo. Zambeletti S.p.A., priority 1988, dated 1991).

Where a name gives a salt, the structure may show the parent alone. A value given as a limit tells only on which side of the number the result lay.

For test [1], the system named is mice. Briefly: Tail-flick test in mice. Particulars: subcutaneous, 30 min pretreatment. The format is in vivo, mouse (male Charles River, Swiss Strain). How it is done:
(B) Tail-flick test in mice
The methodology employed is based on that described by D'Amour and Smith, J. Pharmacol. Exp. Ther. 72. 74/1941.
Male Charles River mice (Swiss Strain), 22-34g body weight were used. Animals were allowed food and water ad libitum and were randomized into groups of 10 prior to experimentation.
Test compounds were dissolved in either distilled water or distilled water plus 0.1 M AMS and administered by the subcutaneous route in a final volume of 10 ml/Kg. Control animals received 10 ml/kg of the appropriate vehicle alone. Following a pretreatment period of 30 min., the mice were again placed under the heat source and the reaction tine re-determined.
Percentage quantal protection was determined as the number of mice in which the reaction time was doubled compared to pretreatment values, expressed as a percentage of the total number of mice in the group.
A general note: Thermal pain tests record how soon the animal reacts.

In test [2] the target is T1, Kappa opiate receptor (spinal cord) (Cavia porcellus, UniProt P41144).
T1 construct: spinal cord kappa-receptors; from tissue
Briefly: Opiate receptor binding, kappa (spinal cord). How it is done:
The binding to the K-sites is performed using ^3 H-Ethyl Ketocyclazocine, a non-selective benzomorphan compound which binds to μ, δ and K-sites, in the presence of 100nM of unlabelled DAGO and 100nM of the enkephalin analogue [DAla^2 -DLeu^5 ]Enkephalin (DADLE), to prevent μ and δ binding respectively.
Final homogenate with solutions of the cold ligand and of the labelled ligand is incubated for 40 min. at 25° C., filtered through Whatman GF/C glass filter discs and washed.
(§1) The radioactivity bound to the filters is counted by liquid scintillation spectrophotometry.
(§2) The non-specific binding is determined in the presence of 500nM of the benzomorphan non-selective compound Mr 2266.
(§3) The equilibrium dissociation constant (KD) and the maximum binding capacity (Bmax) are determined from the analysis of saturation curves, while the inhibition constant (Ki) is determined from the analysis of competition experiments (Hill 1910; Scatchard 1949; Cheng and Prusoff 1973; Gillan et al. 1980) Published references are summarised as follows: […]

Test [3] deals with T2, Mu opiate receptor (brain) (Cavia porcellus, UniProt A0ACM8Q262).
T2 construct: [3H]DAGO (DAMGO) displacement
Briefly: Opiate receptor binding, mu (brain). More on the design: species or system guinea pig. Particulars: 3H-DAGO, 40 min, 25° C. The protocol: (§4) Radio receptor binding to μ and K sites is performed on fresh guinea pig brain homogenate prepared according to Kosterlitz. (1981).
(§5) Whole brain without cerebellum is homogenized in 50 mM, Tris-buffer (pH 7.4 at 0° C.) and centrifuged at 49,000×g×10 min.
(§6) The pellet is then resuspended in the same buffer, incubated at 37° C. for 45 min. and centrifuged again.
(§7) 1.9 ml of the final homogenate (1:100 in Tris-pH 7.4, 0° C.) is used for the binding assay.
^3 H [D-Ala^2, MePhe^4, Gly-ol^5 ] Enkephalin (^3 H-DAGO), an enkephalin analogue that binds selectively to μ receptor, is added to the biological substrate and incubated at 25° C. for 40 min., filtered through Whatman GF-C and washed with ice-cold Tris-buffer.
The filters are then dryed, solubilized in Filtercount and the radioactivity monitored. Non specific binding is determined in the presence of 10^-6 M Naloxone.
as §3

The subject of test [4] is mice. Briefly: P-phenylquinone-induced abdominal writhing test in mice. It counts as in vivo, mouse (male Charles River, Swiss Strain). Particulars: Mus musculus, sc; subcutaneous, 20 min pretreatment, p-phenylquinone 2 mg/Kg i.p. The protocol: (A) P-phenylquinone-induced abdominal writing test in mice
The methodology employed is based on that described by Sigmund et al, Proc. Soc. Exptl. Biol. 95, 729/1957, modified by Milne and Twomey, Agents and Actions, 10, 31/1980.
Male Charles River mice (Swiss Strain), 25-36g body weight, were used. Animals were allowed food and water ad libitum and were randomized into groups of 10 prior to experimentation. Test compounds were dissolved in either distilled water or distilled water plus 0.1 M AMS, and administered by the subcutaneous route in a final volume of 10 ml/Kg. Control animals received 10 ml/Kg of the appropriate vehicle alone. Following a pretreatment period of 20 min., mice were injected intraperitoneally with p-phenylquinone, 2 mg/Kg at 37° C. in a final volume of […]. […] During this period the number of abdominal writhing responses per animal were recorded where writhing consists of an intermittent contraction of the abdomen associated with hind leg extension.
The degree of antinociceptive protection afforded by the test compound was determined as the mean number of writhing responses observed in the treated group (T) expressed as a percentage of the mean number of writhing responses in the control group (C) according to the following formula:
[1-(T/C]×100%=% graded protection
(In writhing tests, fewer writhes than in controls are read as antinociception.)

Test [5] has as its target T3, Kappa opiate receptor (brain) (Cavia porcellus, UniProt P41144).
T3 construct: performed on fresh guinea pig brain homogenate; from tissue; host or cells: guinea pig whole brain without cerebellum, homogenate
Kind of test: Opiate receptor binding, kappa (brain). Also on record: species or system guinea pig. The protocol:
as §4, §5, §6, §7
The binding to the K-sites is performed using ^3 H-Ethyl Ketocyclazocine, a non-selective benzomorphan compound which binds to μ, δ and K-sites, in the presence of 100nM of unlabelled DAGO and 100nM of the enkephalin analogue [DAla^2 -DLeu^5 ]Enkephalin (DADLE), to prevent μ and δ binding respectively. […]
as §1, §2, §3

T2 sequence (A0ACM8Q262 1-400): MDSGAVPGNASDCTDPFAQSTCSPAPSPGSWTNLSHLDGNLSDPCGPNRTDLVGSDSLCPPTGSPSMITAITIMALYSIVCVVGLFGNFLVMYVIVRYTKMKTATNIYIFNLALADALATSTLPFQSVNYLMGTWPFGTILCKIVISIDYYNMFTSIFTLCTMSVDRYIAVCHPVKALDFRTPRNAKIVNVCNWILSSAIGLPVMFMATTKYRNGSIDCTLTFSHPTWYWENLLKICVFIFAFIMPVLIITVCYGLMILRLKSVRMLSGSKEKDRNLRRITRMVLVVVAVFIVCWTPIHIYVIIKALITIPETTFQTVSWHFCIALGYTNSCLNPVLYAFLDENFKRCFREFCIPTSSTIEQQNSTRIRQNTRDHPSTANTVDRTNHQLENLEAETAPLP
T1 sequence (P41144 whole entry): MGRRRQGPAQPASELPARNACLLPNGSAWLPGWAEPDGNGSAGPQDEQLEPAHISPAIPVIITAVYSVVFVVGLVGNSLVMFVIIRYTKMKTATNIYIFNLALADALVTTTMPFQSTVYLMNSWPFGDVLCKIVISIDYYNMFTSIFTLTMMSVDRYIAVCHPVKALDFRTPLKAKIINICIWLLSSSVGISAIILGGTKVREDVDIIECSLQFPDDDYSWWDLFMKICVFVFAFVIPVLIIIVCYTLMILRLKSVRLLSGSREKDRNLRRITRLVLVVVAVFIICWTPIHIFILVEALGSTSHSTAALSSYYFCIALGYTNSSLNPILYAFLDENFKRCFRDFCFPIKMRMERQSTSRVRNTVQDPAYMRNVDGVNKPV
T3 sequence (P41144 whole entry): as above

Take `O=C1CCCc2cc(CC(=O)N3CCCCC3CN3CCCC3)ccc21` (stereo not drawn) [Example 1, 1-[1-oxo-3,4,-dihydro-(2H)-naphth-6-yl]acetyl-2-(pyrrolidin-1-yl)methyl-piperidine hydrochloride]: the “MOUSE TAIL-FLICK % Analgesia” value with mice [1] (dose 0.550 mg/kg) was 50%. Also, the inhibitory constant (Ki) – broadly, the equilibrium dissociation constant of an inhibitor or competing ligand from its target – in test [2] is 5.24 nM; in test [3], greater than 1000 nM; in test [5] it was 81.7 nM. In the test with mice [4], the ED50 (in general, the dose at which the effect has come halfway, by size or by number of responders) stood at 0.235 mg/kg.
Take `O=C1CCCc2cc(CC(=O)N3CCCC[C@H]3CN3CCCC3)ccc21` [Example 2, (2S)-1-[1-oxo-3,4,-dihydro-(2H)-naphth-6-yl]acetyl-2-(pyrrolidin-1-yl)methyl-piperidine hydrochloride]: in the test with mice [1] (dose 0.233 mg/kg), the “MOUSE TAIL-FLICK % Analgesia” value was found to be 50%. Moreover, the Ki was 2.21 nM in test [2], 2980 nM in test [3] and 49 nM in test [5]. In addition, the median effective dose (ED50) in the test on mice [4] turned out to be 0.138 mg/kg.
On to `CC(=O)c1ccc(CC(=O)N2CCCC[C@H]2CN2CCCC2)cc1C` [Example 4, (2S)-1-(3-methyl-4-acetylphenyl)acetyl-2-(pyrrolidin-1-yl)methyl-piperidinehydrochloride hydrate], for which, in the test on mice [1] (dose 8.6 mg/kg), the “MOUSE TAIL-FLICK % Analgesia” value is 80%.
Take `O=C1CCCc2ccc(CC(=O)N3CCCC[C@H]3CN3CCCC3)cc21` [Example 6, (2S)-1-[1-oxo-3,4-dihydro-(2H)-naphth-7-yl] acetyl-2-(pyrrolidin-1-yl)methyl-piperidine hydrochloride]: the “MOUSE TAIL-FLICK % Analgesia” value with mice [1] (dose 10 mg/kg) was 80%.
